Laboratory results reported in article PMC11237553, “De novo synthetic antimicrobial peptide design with a recurrent neural network” (Protein Science : A Publication of the Protein Society, 2024).

Test system: Escherichia coli ATCC 25922
Assay: Broth microdilution antimicrobial susceptibility testing (MIC/MBC)
Type: cell-based
Settings: one maximum and one minimum data point dropped; for MIC, E. coli ATCC 25922: broth microdilution (CLSI, adapted for cationic AMPs), Mueller‐Hinton Broth, 5 ± 3 × 10^5 CFU/mL, 20–24 h at 37°C, test range 128 down to 0.25 μg/mL, lowest effective concentration range in three independent experiments in duplicate; for MBC, E. coli ATCC 25922: concentration killing 99.9% of the inoculum, plated from MIC wells, 24 h at 37°C, range in three independent experiments in duplicate
Method: Bacteria from frozen stocks were streaked onto non‐selective Columbia blood agar with 5% sheep blood (Oxoid) and incubated for 18–24 h at 37°C. The following day, 2–4 colonies were streaked onto a new agar plate and incubated for 18–24 h at 37°C to ensure uniform colony health prior to the assay. A standardized bacterial inoculum was prepared by suspending isolated colonies in Mueller‐Hinton Broth (MHB; Sigma‐Aldrich, St. Louis, MO, USA). The suspension was adjusted to an optical density of 0.08–0.1 at 600 nm, equivalent to a 0.5 McFarland standard of approximately 1–2 × 10^8 CFU/mL (CFU: colony forming units). The inoculum was then diluted 1:250 to achieve a final concentration of 5 ± 3 × 10^5 CFU/mL. The target bacterial density was confirmed by examining the total viability counts from the final inoculum.
Candidate AMPs were purchased from and synthesized by GenScript (Piscataway, NJ, USA). These were received in lyophilized format and stored at −20°C, and were suspended in sterile ultrapure water prior to testing.

Row | Sequence | MIC, E. coli ATCC 25922 | MBC, E. coli ATCC 25922
1 | FLPKIAGKAAKKLPKIFCKITKKC [DeNo1019] | 16 µg/mL | 16 µg/mL
2 | TLPDVAKNVAKNVAKTVLDTLKCKITGKC [DeNo1020] | 64 to 128 µg/mL | 64 to 128 µg/mL
3 | KLPSIIKAAAKALPKLF [DeNo1034] | 16 to 32 µg/mL | 16 to 64 µg/mL
4 | MLPSIAGAAAKGLPKLFCKITKKC [DeNo1038] | 64 µg/mL | 64 to 128 µg/mL
5 | RLPSIIPGIAGKLGGLLGGLLKGL [DeNo1027] | 32 µg/mL | 32 to 64 µg/mL
6 | KIFGKILKKLLKKLLKKLLKKL [DeNo1013] | 16 µg/mL | 16 to 32 µg/mL
7 | FLPKIFKKIAKKL [DeNo1045] | 64 µg/mL | 64 to 128 µg/mL
